Earlier results, collected in patent US8221746B2, “Antioxidant for use in cosmetic, medicated and pharmaceutical preparations” (priority 2008, dated 2012).

Assays:
[1] = system: photodamage of facial skin; conditions: topical, 3 months
photoaging of the face = conditions: topical, 12 weeks, vs placebo gel

O=C1O[C@H]([C@@H](O)CO)C(O)=C1O [vitamin C]
patient questionnaire overall improvement greater than control [1]: 84.2% | photographic assessment improvement greater than the improvement in the control group [1]: 57.9% | combined score improvement, optical image analysis of skin surface ([1]; compared to placebo-vehicle side of face): 71% | clinical improvement in wrinkling (in words) (photoaging of the face): clinically visible and statistically significant improvement in wrinkling
